Reference: US20100041089A1, “IMPROVED METHOD FOR DETECTING CHEMICAL […]” (priority 2006, published 2010)

System: yeast genes (expressed mRNA)
Experiment: DNA chip measurement of expressed mRNA of yeast genes after culture with a toxic chemical substance
Assay type: cell-based, Saccharomyces cerevisiae S288C
Conditions: for level of expressed mRNA in the presence of chemical substance / level in the absence of chemical substance: cultured two hours with the chemical substance; for The level of expressed mRNA in the presence of chemical substance/The level of expressed mRNA in the absence of chemical substance: cultured two hours with substance
Description: Yeast (Saccharomyces cerevisiae S288C (a SUC2mal mel gap2 CUP1)) were cultured at 25° C. on YPD medium (yeast extract 1%, polypeptone 2%, glucose 2%). One of toxic chemical substances was added to the cell at logarithmic growth phase, and the cell was further cultured for two hours. Cell was cultured without any chemical substance in the same condition, and was used as a control. Concentrations of the chemical substances were defined to inhibit the growth of the yeast but not lead to death.
After the completion of cultivation, the culture was centrifuged to collect the cells. To the cells, sodium acetate buffer (50 mM sodium acetate, 10 mM EDTA, 1% SDS) was added, and the mixture was shaken at 65° C. for five minutes, followed by returning to room temperature, and obtaining the supernatant, which procedure was repeated two times. To the supernatant, ½ amount of a solution of phenol/chloroform (1:1) was added, and the mixture was centrifuged to give a supernatant, an equal amount of chloroform was added, and the mixture was centrifuged to give a supernatant. To the supernatant, an equal amount of isopropanol containing 0.3 M sodium acetate was added, and the mixture was allowed to stand at room temperature for 30 minutes, after which the mixture was centrifuged to give sediment of the whole RNAs. Seventy % ethanol was added to the sediment, and the mixture was again centrifuged to give sediment, which was then dried and dissolved in water. mRNA was isolated from the whole RNAs as followings. In view of the fact that a poly A chain is attached to the 3′ terminus of mRNA, a polynucleotide having a poly T structure which was immobilized on the surface of latex beads was used to trap the mRNA, and then the mRNA was washed and eluted with spine column (Oligotex-dT30<Super>mRNA Purification Kit, Takara). Reverse transcription of the mRNA was conducted with a reverse transcriptase (Super Script II Reverse Transcriptase; catalogue No. 18064-014, GibcoBRL) using fluorescence-labeled nucleotides to give cDNAs that were introduced with Cy3-dUTP or Cy5-dUTP during the reverse transcription.
The labeled cDNAs were dissolved in TE buffer (10 mM Tris-HCl/1 mM EDTA, pH 8.0), and the solution was dropped on the DNA chip containing the whole genes of yeast (DNA Chip Research Inc. Japan) so that the cDNAs were hybridized on the DNA chip at 65° C. for over 12 hours. The fluoresces intensity of the DNA chip was read with a scanner, and the ratio relative to the fluorescence intensity resulting from the absence of chemical substance was estimated as the following, which is shown in Tables 1 to 9.
In the Tables, “Intensity” indicated in the rightmost column is a value of the level of expressed mRNA of each gene in control cells as divided by the average level of the expressions of the whole genes. A gene of which mRNA level is lower in control, and is higher in cases of addition of chemical substance, is especially useful in the detection of toxic substances.
Here, when a ratio of an amount of mRNA expressed in the presence of the chemical substance to an amount of mRNA expressed in the absence of the chemical substance is two or more, then it is considered significant.

Cl[C@H]1[C@H](Cl)[C@@H](Cl)[C@@H](Cl)[C@H](Cl)[C@H]1Cl [(7), γ-Hexachlorocyclohexane]
The level of expressed mRNA in the presence of chemical substance/The level of expressed mRNA in the absence of chemical substance, yeast gene YBR036C (gene YBR036C, Metabolism protein genes, DNA chip fluorescence ratio): 1.3 | The level of expressed mRNA in the presence of chemical substance/The level of expressed mRNA in the absence of chemical substance, yeast gene YBR298C (gene YBR298C, Metabolism protein genes, DNA chip fluorescence ratio): 1.7 | The level of expressed mRNA in the presence of chemical substance/The level of expressed mRNA in the absence of chemical substance, yeast gene YDL067C (gene YDL067C (mitochondria-located protein gene), yeast cultured two hours with chemical substance, DNA chip fluorescence ratio to control): 0.8 | The level of expressed mRNA in the presence of chemical substance/The level of expressed mRNA in the absence of chemical substance, yeast gene YDL078C (gene YDL078C, Metabolism protein genes, DNA chip fluorescence ratio): 1.7 | The level of expressed mRNA in the presence of chemical substance/The level of expressed mRNA in the absence of chemical substance, yeast gene YDL215C (gene YDL215C, Metabolism protein genes, DNA chip fluorescence ratio): 1.9 | The level of expressed mRNA in the presence of chemical substance/The level of expressed mRNA in the absence of chemical substance, yeast gene YDR079W (gene YDR079W (mitochondria-located protein gene), yeast cultured two hours with chemical substance, DNA chip fluorescence ratio to control): 1.3 | The level of expressed mRNA in the presence of chemical substance/The level of expressed mRNA in the absence of chemical substance, yeast gene YDR297W (gene YDR297W, Metabolism protein genes, DNA chip fluorescence ratio): 0.6 | The level of expressed mRNA in the presence of chemical substance/The level of expressed mRNA in the absence of chemical substance, yeast gene YDR387C (gene YDR387C, Metabolism protein genes, DNA chip fluorescence ratio): 1.3 | The level of expressed mRNA in the presence of chemical substance/The level of expressed mRNA in the absence of chemical substance, yeast gene YGL035C (gene YGL035C, Metabolism protein genes, DNA chip fluorescence ratio): 1.2 | The level of expressed mRNA in the presence of chemical substance/The level of expressed mRNA in the absence of chemical substance, yeast gene YGR062C (gene YGR062C (mitochondria-located protein gene), yeast cultured two hours with chemical substance, DNA chip fluorescence ratio to control): 1.3 | The level of expressed mRNA in the presence of chemical substance/The level of expressed mRNA in the absence of chemical substance, yeast gene YGR287C (gene YGR287C, Metabolism protein genes, DNA chip fluorescence ratio): 2.2 | The level of expressed mRNA in the presence of chemical substance/The level of expressed mRNA in the absence of chemical substance, yeast gene YJL070C (gene YJL070C, Metabolism protein genes, DNA chip fluorescence ratio): 1.4 | The level of expressed mRNA in the presence of chemical substance/The level of expressed mRNA in the absence of chemical substance, yeast gene YJL096W (gene YJL096W (mitochondria-located protein gene), yeast cultured two hours with chemical substance, DNA chip fluorescence ratio to control): 1.7 | The level of expressed mRNA in the presence of chemical substance/The level of expressed mRNA in the absence of chemical substance, yeast gene YJL180C (gene YJL180C (mitochondria-located protein gene), yeast cultured two hours with chemical substance, DNA chip fluorescence ratio to control): 1.6 | The level of expressed mRNA in the presence of chemical substance/The level of expressed mRNA in the absence of chemical substance, yeast gene YKR009C (gene YKR009C, Metabolism protein genes, DNA chip fluorescence ratio): 1.0 | The level of expressed mRNA in the presence of chemical substance/The level of expressed mRNA in the absence of chemical substance, yeast gene YLR295C (gene YLR295C (mitochondria-located protein gene), yeast cultured two hours with chemical substance, DNA chip fluorescence ratio to control): 1.1 | The level of expressed mRNA in the presence of chemical substance/The level of expressed mRNA in the absence of chemical substance, yeast gene YLR351C (gene YLR351C, Metabolism protein genes, DNA chip fluorescence ratio): 1.4 | The level of expressed mRNA in the presence of chemical substance/The level of expressed mRNA in the absence of chemical substance, yeast gene YLR375W (gene YLR375W, Metabolism protein genes, DNA chip fluorescence ratio): 0.9 | The level of expressed mRNA in the presence of chemical substance/The level of expressed mRNA in the absence of chemical substance, yeast gene YMR023C (gene YMR023C (mitochondria-located protein gene), yeast cultured two hours with chemical substance, DNA chip fluorescence ratio to control): 1.9 | The level of expressed mRNA in the presence of chemical substance/The level of expressed mRNA in the absence of chemical substance, yeast gene YMR267W (gene YMR267W (mitochondria-located protein gene), yeast cultured two hours with chemical substance, DNA chip fluorescence ratio to control): 1.2 | The level of expressed mRNA in the presence of chemical substance/The level of expressed mRNA in the absence of chemical substance, yeast gene YMR267W (gene YMR267W, Metabolism protein genes, DNA chip fluorescence ratio): 1.2 | The level of expressed mRNA in the presence of chemical substance/The level of expressed mRNA in the absence of chemical substance, yeast gene YMR278W (gene YMR278W, Metabolism protein genes, DNA chip fluorescence ratio): 1.8 | The level of expressed mRNA in the presence of chemical substance/The level of expressed mRNA in the absence of chemical substance, yeast gene YMR293C (gene YMR293C, Metabolism protein genes, DNA chip fluorescence ratio): 1.2 | The level of expressed mRNA in the presence of chemical substance/The level of expressed mRNA in the absence of chemical substance, yeast gene YNL073W (gene YNL073W (mitochondria-located protein gene), yeast cultured two hours with chemical substance, DNA chip fluorescence ratio to control): 1.1 | The level of expressed mRNA in the presence of chemical substance/The level of expressed mRNA in the absence of chemical substance, yeast gene YNR072W (gene YNR072W, Metabolism protein genes, DNA chip fluorescence ratio): 1.5 | The level of expressed mRNA in the presence of chemical substance/The level of expressed mRNA in the absence of chemical substance, yeast gene YOL096C (gene YOL096C, Metabolism protein genes, DNA chip fluorescence ratio): 1.7 | The level of expressed mRNA in the presence of chemical substance/The level of expressed mRNA in the absence of chemical substance, yeast gene YOR180C (gene YOR180C, Metabolism protein genes, DNA chip fluorescence ratio): 0.8 | The level of expressed mRNA in the presence of chemical substance/The level of expressed mRNA in the absence of chemical substance, yeast gene YOR316C (gene YOR316C (mitochondria-located protein gene), yeast cultured two hours with chemical substance, DNA chip fluorescence ratio to control): 1.4 | The level of expressed mRNA in the presence of chemical substance/The level of expressed mRNA in the absence of chemical substance, yeast gene YOR363C (gene YOR363C, Metabolism protein genes, DNA chip fluorescence ratio): 0.7 | The level of expressed mRNA in the presence of chemical substance/The level of expressed mRNA in the absence of chemical substance, yeast gene YPL040C (gene YPL040C (mitochondria-located protein gene), yeast cultured two hours with chemical substance, DNA chip fluorescence ratio to control): 0.8 | The level of expressed mRNA in the presence of chemical substance/The level of expressed mRNA in the absence of chemical substance, yeast gene YPL134C (gene YPL134C (mitochondria-located protein gene), yeast cultured two hours with chemical substance, DNA chip fluorescence ratio to control): 1.2 | The level of expressed mRNA in the presence of chemical substance/The level of expressed mRNA in the absence of chemical substance, yeast gene YPR184W (gene YPR184W, Metabolism protein genes, DNA chip fluorescence ratio): 1.3 | level of expressed mRNA in the presence of chemical substance / level in the absence of chemical substance (yeast gene YAL018C): 1.0 | The level of expressed mRNA in the presence of chemical substance/The level of expressed mRNA in the absence of chemical substance (yeast gene YAL053W): 0.7 | level of expressed mRNA in the presence of chemical substance / level in the absence of chemical substance (yeast gene YAR047C): 1.2 | level of expressed mRNA in the presence of chemical substance / level in the absence of chemical substance (yeast gene YAR064W): 1.1 | level of expressed mRNA in the presence of chemical substance / level in the absence of chemical substance (yeast gene YBL044W): 1.1 | The level of expressed mRNA in the presence of chemical substance/The level of expressed mRNA in the absence of chemical substance (yeast gene YBL048W): 1.9 | The level of expressed mRNA in the presence of chemical substance/The level of expressed mRNA in the absence of chemical substance (yeast gene YBL107C): 2.1 | level of expressed mRNA in the presence of chemical substance / level in the absence of chemical substance (yeast gene YBR012C): 1.5 | level of expressed mRNA in the presence of chemical substance / level in the absence of chemical substance (yeast gene YBR066C): 1.3 | level of expressed mRNA in the presence of chemical substance / level in the absence of chemical substance (yeast gene YBR124W): 1.1 | level of expressed mRNA in the presence of chemical substance / level in the absence of chemical substance (yeast gene YBR162C): 0.3 | level of expressed mRNA in the presence of chemical substance / level in the absence of chemical substance (yeast gene YBR287W): 1.1 | level of expressed mRNA in the presence of chemical substance / level in the absence of chemical substance (yeast gene YCL056C): 1.6 | level of expressed mRNA in the presence of chemical substance / level in the absence of chemical substance (yeast gene YCR007C): 2.0 | level of expressed mRNA in the presence of chemical substance / level in the absence of chemical substance (yeast gene YDL046W): 1.2 | The level of expressed mRNA in the presence of chemical substance/The level of expressed mRNA in the absence of chemical substance (yeast gene YDL072C): 1.8 | The level of expressed mRNA in the presence of chemical substance/The level of expressed mRNA in the absence of chemical substance (yeast gene YDL204W): 3.2 | The level of expressed mRNA in the presence of chemical substance/The level of expressed mRNA in the absence of chemical substance (yeast gene YDL222C): 1.0 | level of expressed mRNA in the presence of chemical substance / level in the absence of chemical substance (yeast gene YDR090C): 1.5 | level of expressed mRNA in the presence of chemical substance / level in the absence of chemical substance (yeast gene YDR128W): 0.8
